Measurements as given in patent US4138554A, “7-[D-α-(4-Hydroxy-1,5-naphthyridine-3-carboxamido)-α-phenyl (and p-hydroxyphenyl)acetamido]-3-carbamoyloxymethyl-3-cephem-4-carboxylic acids” (priority 1977, dated 1979).
Where two headings read alike, the source gives them in different places.

Experiments:
S. aureus = assay: MIC by serial two-fold agar dilution (Mueller-Hinton agar), S. aureus; assay type: cell-based; settings: Staphylococcus aureus
Procedure: (§1) Minimum inhibitory concentrations (MIC) of BB-S520 were determined by serial two-fold agar dilution method using Steers' apparatus on Meuller-Hinton agar plate against 31 test organisms for the primary screening and also against 61 strains of Pseudomonas aeruginosa for the secondary evaluation. The results are shown in Table 1 and Table 2 along with those of BB-S514 and sulbenicillin.
(§2) Minimum inhibitory concentrations (MIC) of cephalosporins in the present study were determined by serial two-fold agar dilution method using Steers' apparatus on Mueller-Hinton agar plate against 31 test organisms for the primary screening and also against 61 strains of Pseudomonas aeruginosa for the secondary evaluation.

K. pneumoniae = assay: MIC by serial two-fold agar dilution (Mueller-Hinton agar), K. pneumoniae; assay type: cell-based; settings: Klebsiella pneumoniae, K. pneumoniae A9977, Table 6
Procedure: as §1, §2

Klebsiella sp. = assay: MIC by serial two-fold agar dilution (Mueller-Hinton agar), Klebsiella sp.; assay type: cell-based; settings: Klebsiella sp. A20452, Table 6; read-out: MIC
Procedure: as §1, §2

E. cloacae = assay: MIC by serial two-fold agar dilution (Mueller-Hinton agar), E. cloacae; assay type: cell-based; settings: Enterobacter cloacae
Procedure: as §1, §2

P. mirabilis = assay: MIC by serial two-fold agar dilution (Mueller-Hinton agar), P. mirabilis; assay type: cell-based; settings: Proteus mirabilis; P. mirabilis A9900, Table 6; read-out: MIC
Procedure: as §1, §2

P. vulgaris = assay: MIC by serial two-fold agar dilution (Mueller-Hinton agar), P. vulgaris; assay type: cell-based; settings: Proteus vulgaris; P. vulgaris A9539, Table 6; read-out: MIC
Procedure: as §1, §2

P. morganii = assay: MIC by serial two-fold agar dilution (Mueller-Hinton agar), P. morganii; assay type: cell-based; settings: Morganella morganii; P. morganii A9553, Table 6; read-out: MIC
Procedure: as §1, §2

S. enteritidis = assay: MIC by serial two-fold agar dilution (Mueller-Hinton agar), S. enteritidis; assay type: cell-based; settings: Salmonella enterica; S. enteritidis A9531, Table 6; read-out: MIC
Procedure: as §1, §2

S. marcescens = assay: MIC by serial two-fold agar dilution (Mueller-Hinton agar), S. marcescens; assay type: cell-based; settings: Serratia marcescens; S. marcescens A20019, Table 6; read-out: MIC
Procedure: as §1, §2

Pseudomonas aeruginosa = assay: MIC by agar dilution against 61 strains of Pseudomonas aeruginosa, secondary evaluation; assay type: cell-based; settings: for MIC: Pseudomonas aeruginosa
Procedure: as §1, §2

S. aureus Smith = assay: Median curative dose in mice, infection with S. aureus Smith; assay type: in vivo; settings: Staphylococcus aureus, sc; mice, S. aureus Smith infection, Table 5; read-out: PD50
Excerpt: (§3) Median Curative Dose in Mgm./Kg.
(§4) Upon Subcutaneous Injection in Mice

E. coli Juhl = assay: Median curative dose in mice, infection with E. coli Juhl; assay type: in vivo; settings: Escherichia coli, sc; mice, E. coli Juhl infection, Table 5; read-out: PD50
Excerpt: as §3, §4

Ps. aeruginosa A9843 = assay: Median curative dose in mice, infection with Ps. aeruginosa; assay type: in vivo; settings: Pseudomonas aeruginosa, A9843, sc, mice, P. aerug. A9843 infection, Table 5; read-out: PD50
Excerpt: as §3, §4

## NC(=O)OCC1=C(C(=O)O)N2C(=O)C(NC(=O)[C@H](NC(=O)c3cnc4cccnc4c3O)c3ccc(O)cc3)C2SC1 (single isomer, unassigned) [BB-S530, Sodium 7-[D-(-)-α-(4-hydroxy-1,5-naphthyridine-3-carboxamido)-α-(p-hydroxyphenyl)acetamido]-3-carbamoyloxymethyl-3-cephem-4-carboxylate]
S. aureus; S. aureus BX-1633 A9606, Table 6, read-out: MIC
  MIC: 3.1 µg/mL
S. aureus; S. aureus Smith A9537, Table 6, read-out: MIC
  MIC: 1.6 µg/mL
S. aureus; S. aureus Smith A15907, Table 6
  MIC: 25 µg/mL
S. aureus; S. aureus Smith A20239, Table 6, read-out: MIC
  MIC: 3.1 µg/mL
S. aureus; S. aureus Smith A20240, Table 6, read-out: MIC
  MIC: 3.1 µg/mL
S. aureus; S. aureus Smith A20701, Table 6, read-out: MIC
  MIC: 25 µg/mL
K. pneumoniae
  MIC: 1.6 µg/mL
Klebsiella sp.
  MIC: 1.6 µg/mL
E. cloacae; E. cloacae A9656, Table 6
  MIC: 12.5 µg/mL
E. cloacae; E. cloacae A9657, Table 6
  MIC: 100 µg/mL
E. cloacae; E. cloacae A9659, Table 6
  MIC: 100 µg/mL
P. mirabilis
  MIC: 6.3 µg/mL
P. vulgaris
  MIC: > 100 µg/mL
P. morganii
  MIC: > 100 µg/mL
S. enteritidis
  MIC: 0.8 µg/mL
S. marcescens
  MIC: > 100 µg/mL
Pseudomonas aeruginosa; 61 strains of Pseudomonas aeruginosa, Table 7
  Rel. Act. (SBPC=100%): 1694%
Pseudomonas aeruginosa; P. aerug. (61 strains), Table 5
  Mean % Relative Activity (SPBC = 100%): 1694%
Pseudomonas aeruginosa; 61 strains of Pseudomonas aeruginosa, Table 7, read-out: Geometric Mean of MIC
  MIC: 1.4 µg/mL
Pseudomonas aeruginosa; BBRI Pa-No. 1, D15, Table 7, read-out: MIC
  MIC: 6.3 µg/mL
Pseudomonas aeruginosa; BBRI Pa-No. 2, VA, Table 7, read-out: MIC
  MIC: 1.6 µg/mL
Pseudomonas aeruginosa; BBRI Pa-No. 3, 1449VA, Table 7, read-out: MIC
  MIC: 0.8 µg/mL
Pseudomonas aeruginosa; BBRI Pa-No. 4, H9 D113, Table 7, read-out: MIC
  MIC: 1.6 µg/mL
Pseudomonas aeruginosa; BBRI Pa-No. 5, N4865KC, Table 7, read-out: MIC
  MIC: 1.6 µg/mL
Pseudomonas aeruginosa; BBRI Pa-No. 6, No. 5, Table 7, read-out: MIC
  MIC: 6.3 µg/mL
Pseudomonas aeruginosa; BBRI Pa-No. 7, Table 7, read-out: MIC
  MIC: 1.6 µg/mL
Pseudomonas aeruginosa; BBRI Pa-No. 8, Table 7, read-out: MIC
  MIC: 1.6 µg/mL
Pseudomonas aeruginosa; BBRI Pa-No. 9, Yale, Table 7, read-out: MIC
  MIC: 1.6 µg/mL
Pseudomonas aeruginosa; BBRI Pa-No. 10, Table 7, read-out: MIC
  MIC: 100 µg/mL
Pseudomonas aeruginosa; BBRI Pa-No. 11, Table 7, read-out: MIC
  MIC: 1.6 µg/mL
Pseudomonas aeruginosa; BBRI Pa-No. 12, Table 7, read-out: MIC
  MIC: 1.6 µg/mL
Pseudomonas aeruginosa; BBRI Pa-No. 14, Table 7, read-out: MIC
  MIC: 0.8 µg/mL
Pseudomonas aeruginosa; BBRI Pa-No. 15, Table 7, read-out: MIC
  MIC: 3.1 µg/mL
Pseudomonas aeruginosa; BBRI Pa-No. 16, No. 130, Table 7, read-out: MIC
  MIC: < 0.2 µg/mL
Pseudomonas aeruginosa; BBRI Pa-No. 17, H6 D114, Table 7, read-out: MIC
  MIC: 12.5 µg/mL
Pseudomonas aeruginosa; BBRI Pa-No. 18, H8 D121, Table 7, read-out: MIC
  MIC: 0.4 µg/mL
Pseudomonas aeruginosa; BBRI Pa-No. 19, Table 7, read-out: MIC
  MIC: 0.4 µg/mL
Pseudomonas aeruginosa; BBRI Pa-No. 20, Table 7, read-out: MIC
  MIC: 1.6 µg/mL
Pseudomonas aeruginosa; BBRI Pa-No. 21, Table 7, read-out: MIC
  MIC: 1.6 µg/mL
Pseudomonas aeruginosa; BBRI Pa-No. 23, Table 7, read-out: MIC
  MIC: 1.6 µg/mL
Pseudomonas aeruginosa; BBRI Pa-No. 24, Table 7, read-out: MIC
  MIC: 50 µg/mL
Pseudomonas aeruginosa; BBRI Pa-No. 25, Table 7, read-out: MIC
  MIC: 0.8 µg/mL
Pseudomonas aeruginosa; BBRI Pa-No. 26, Ps32, Table 7, read-out: MIC
  MIC: 6.3 µg/mL
Pseudomonas aeruginosa; BBRI Pa-No. 28, CPH1C527/72, Table 7, read-out: MIC
  MIC: 1.6 µg/mL
Pseudomonas aeruginosa; BBRI Pa-No. 29, D122, Table 7, read-out: MIC
  MIC: 0.8 µg/mL
Pseudomonas aeruginosa; BBRI Pa-No. 30, Table 7, read-out: MIC
  MIC: 0.8 µg/mL
Pseudomonas aeruginosa; BBRI Pa-No. 31, Table 7, read-out: MIC
  MIC: < 0.2 µg/mL
Pseudomonas aeruginosa; BBRI Pa-No. 32, Table 7, read-out: MIC
  MIC: 0.8 µg/mL
Pseudomonas aeruginosa; BBRI Pa-No. 33, Table 7, read-out: MIC
  MIC: 0.8 µg/mL
Pseudomonas aeruginosa; BBRI Pa-No. 34, Table 7, read-out: MIC
  MIC: 0.4 µg/mL
Pseudomonas aeruginosa; BBRI Pa-No. 35, Table 7, read-out: MIC
  MIC: 1.6 µg/mL
Pseudomonas aeruginosa; BBRI Pa-No. 36, Table 7, read-out: MIC
  MIC: < 0.2 µg/mL
Pseudomonas aeruginosa; BBRI Pa-No. 37, Table 7, read-out: MIC
  MIC: 1.6 µg/mL
Pseudomonas aeruginosa; BBRI Pa-No. 38, Table 7, read-out: MIC
  MIC: 3.1 µg/mL
Pseudomonas aeruginosa; BBRI Pa-No. 39, Table 7, read-out: MIC
  MIC: 0.8 µg/mL
Pseudomonas aeruginosa; BBRI Pa-No. 41, Table 7, read-out: MIC
  MIC: 1.6 µg/mL
Pseudomonas aeruginosa; BBRI Pa-No. 42, Table 7, read-out: MIC
  MIC: 1.6 µg/mL
Pseudomonas aeruginosa; BBRI Pa-No. 43, Table 7, read-out: MIC
  MIC: 1.6 µg/mL
Pseudomonas aeruginosa; BBRI Pa-No. 44 (unnamed strain), Table 7, read-out: MIC
  MIC: 1.6 µg/mL
Pseudomonas aeruginosa; BBRI Pa-No. 51, Table 7, read-out: MIC
  MIC: 0.8 µg/mL
Pseudomonas aeruginosa; BBRI Pa-No. 52, Table 7, read-out: MIC
  MIC: 1.6 µg/mL
Pseudomonas aeruginosa; BBRI Pa-No. 53, Table 7, read-out: MIC
  MIC: 0.8 µg/mL
Pseudomonas aeruginosa; BBRI Pa-No. 54, Table 7, read-out: MIC
  MIC: 0.8 µg/mL
Pseudomonas aeruginosa; BBRI Pa-No. 55, Table 7, read-out: MIC
  MIC: 1.6 µg/mL
Pseudomonas aeruginosa; BBRI Pa-No. 56, Table 7, read-out: MIC
  MIC: 1.6 µg/mL
Pseudomonas aeruginosa; BBRI Pa-No. 57, Table 7, read-out: MIC
  MIC: 0.8 µg/mL
Pseudomonas aeruginosa; BBRI Pa-No. 58, Table 7, read-out: MIC
  MIC: 1.6 µg/mL
Pseudomonas aeruginosa; BBRI Pa-No. 59, Table 7, read-out: MIC
  MIC: 0.8 µg/mL
Pseudomonas aeruginosa; BBRI Pa-No. 60, Table 7, read-out: MIC
  MIC: 0.8 µg/mL
Pseudomonas aeruginosa; BBRI Pa-No. 61, Table 7, read-out: MIC
  MIC: 1.6 µg/mL
Pseudomonas aeruginosa; BBRI Pa-No. 62, Table 7, read-out: MIC
  MIC: 100 µg/mL
Pseudomonas aeruginosa; BBRI Pa-No. 64, Table 7, read-out: MIC
  MIC: 1.6 µg/mL
Pseudomonas aeruginosa; BBRI Pa-No. 65, Table 7, read-out: MIC
  MIC: 1.6 µg/mL
Pseudomonas aeruginosa; BBRI Pa-No. 66, Table 7, read-out: MIC
  MIC: 0.8 µg/mL
Pseudomonas aeruginosa; BBRI Pa-No. 67, Table 7, read-out: MIC
  MIC: 1.6 µg/mL
Pseudomonas aeruginosa; BBRI Pa-No. 68, Table 7, read-out: MIC
  MIC: 1.6 µg/mL
Pseudomonas aeruginosa; BBRI Pa-No. 69, Table 7, read-out: MIC
  MIC: 3.1 µg/mL
Pseudomonas aeruginosa; BBRI Pa-No. 70, K-Ps102(CR-102), Table 7, read-out: MIC
  MIC: 0.8 µg/mL
Pseudomonas aeruginosa; GN315, BBRI Pa-No. 27, GN315, Table 7, read-out: MIC
  MIC: 0.4 µg/mL
Pseudomonas aeruginosa; GN4925, BBRI Pa-No. 44, GN4925, Table 7, read-out: MIC
  MIC: 1.6 µg/mL
S. aureus Smith
  ED50: 1.3 mg/kg
E. coli Juhl
  ED50: 1.8 mg/kg
Ps. aeruginosa A9843
  ED50: 9.3 mg/kg
